Reference: patent US9233961B2, “Compounds and compositions for the treatment of parasitic diseases” (Novartis AG, priority 2013, dated 2016)
Where two headings read alike, the source gives them in different places.

Columns and labels:
[1] = tested on: Leishmania donovani axenic amastigote parasites; test: Leishmania donovani axenic amastigote proliferation assay; format: cell-based
Procedure: Leishmania Donovani Axenic Amastigote Proliferation Assay
Leishmania donovani axenic amastigote parasites are grown at 37° C., 5% CO2 in media made of RPMI 1640, 4 mM L-glutamine, 20% heat inactivated FBS, 100 units/ml of penicillin and 100 μg/ml of streptomycin, 23 μM Folic Acid, 100 μM Adenosine, 22 mM D-glucose, 25 mM MES. The pH of media is adjusted to 5.5 at 37° C. using HCl. 20 μL of media is first dispensed into 384 well plates and 100 nL of the compounds of invention in DMSO are added to the plate wells. At the same time control compounds and DMSO are added to plates to serve as the positive and negative controls, respectively. 40 μL of parasite culture (9600 parasites) are then added to the plate wells. The plates are then placed into incubators. After 2 day incubation, 20 μL of Cell TiterGlo (Promega) is added to the plate wells. The luminescence signal of each well is measured using the Envision reader (Perkin Elmer). The percentage inhibition of 50%, EC50, is calculated for each of the compounds.

[2] = tested on: L. donovani HU3 strain in mouse peritoneal macrophages; test: Assay for proliferation of Leishmania parasites in mouse peritoneal macrophages; format: cell-based, Leishmania donovani; conditions: Leishmania donovani, Peritoneal macrophage, read-out: L. donavani Macrophage EC50
Text: Assay for Proliferation of Leishmania Parasites
The activity of a compound according to the present invention for inhibition of parasitemai can be assessed by the parasite proliferation assay. The assay measures the increase in the parasite number in the assayed plate well using a DNA intercalating dye, SYBR Green I® dye (INVITROGEN) to stain Leishmania cell nuclei. It is understood that the assays illustrate the invention without in any way limiting the scope of the invention.
L. donovani HU3 strain is propagated by infecting BALB/c mice through tail vein injection with 10^7 Leishmania parasites. Infected mice are allowed to develop infection during 9-11 weeks post-infection. During this time, the parasites accumulate in the infected mouse spleens to large numbers, and the infected mice serve as the source of parasites for the in vitro measurement of compound efficacies. To assay a compound for anti-leishmanial activity, peritoneal macrophages isolated from non-infected BALB/c mice are seeded into 384-well plates at density 2×10^4 macrophages per well in […] of medium (RPMI 1640, 10% […], 10 mM HEPES, 1 mM sodium pyruvate, 1% Pen/Strep). Subsequently, the seeded plates are placed into an incubator set to maintain 37° C. temperature and atmosphere with 5% CO2. The next day, Leishmania parasites are isolated from the spleens of mice infected for 9-11 weeks and 4×10^5 isolated parasites in […] of the above media are added to each plate well. Plates are then returned into incubators and infection is allowed to proceed for 24 hours. After the infection of macrophages is completed, […] of compounds of the invention in the above medium, which also contains 5% DMSO, are added to plate wells containing infected macrophages. At the same time control compounds (miltefosine and amphotericin B) and DMSO are added to plates to serve as the positive and negative controls, respectively. After the compound addition, the plates are returned into incubator and cells infected with parasites are cultured for 5 days. At the end of cultivation, […] of 8% paraformaldehyde is added to plate wells and incubated for 15 min at room temperature. Following the incubation, the paraformaldehyde from plate wells is aspirated, and […] of PBS containing 0.2% Triton X-100 is added to wells. After 15 min incubation, the solution is aspirated from wells again, and replaced with SybrGreen Dye solution in PBS (1:125,000 dilution). Infected cells are imaged with Evotec Opera high-content microscope, and the number of parasites in well is determined by counting parasite nuclei visualized by staining with SybrGreen dye. The percentage inhibition of 50%, EC50, is calculated for each compound.
The inhibitory efficacy of the compounds of the invention in delaying the proliferation of L. donovani in mouse peritoneal macrophages is provided in Table I, infra.

[3] = 48 h, L. donovani axenic amastigotes, 2 day incubation, Cell TiterGlo luminescence, read-out: EC50
[4] = axenic amastigotes in vitro, read-out: L. donovani amastigotes EC50

| SMILES | EC50 [1, 3] [nM] | EC50 [1, 4] [nM] | EC50 [2] [nM] |
| --- | --- | --- | --- |
| CNc1ccc(-c2cnc3nc(-c4cc(NC(=O)N5CCCC5)ccc4Cl)[nH]c3c2)cc1 [Compound 292, N-(4-chloro-3-{6-[4-(methylamino)phenyl]-1H-imidazo[4,5-b]pyridin-2-yl}phenyl)pyrrolidine-1-carboxamide] | ~80 | 80 | 170 |
| O=C(Nc1ccc(Cl)c(-c2nc3ncc(-c4ccc(F)cc4)cc3[nH]2)c1)N1CCCC1 [Compound 293] | – | 380 | 2470 |
| O=C(Nc1ccc(Cl)c(-c2nc3ncc(-c4ccc(N5CCNCC5)cc4)cc3[nH]2)c1)N1CCCC1 [Compound 294] | – | > 25000 | 16900 |
| O=C(Nc1ccc(F)c(-c2nc3ncc(-c4ccc(OCCN5CCOCC5)cc4)cc3[nH]2)c1)N1CCCC1 [Compound 295] | – | 2860 | 1270 |
| COC(=O)Nc1ccc(-c2cnc3nc(-c4cc(NC(=O)N5CCCC5)ccc4Cl)[nH]c3c2)cc1 [Compound 296] | – | 34 | 126 |
| O=C(Nc1ccc(F)c(-c2nc3ncc(-c4cnn(C5CCNCC5)c4)cc3[nH]2)c1)N1CCCC1 [Compound 298] | – | > 25000 | > 50000 |
| O=C(Nc1ccc(Cl)c(-c2nc3ncc(-c4ccc(OCCN5CCOCC5)cc4)cc3[nH]2)c1)N1CCCC1 [Compound 299] | – | 730 | 208 |
| O=C(Nc1ccc(Cl)c(-c2nc3ncc(-c4ccsc4)cc3[nH]2)c1)N1CCCC1 [Compound 300] | – | 143 | 289 |
| O=C(Nc1ccc(Cl)c(-c2nc3ncc(-c4cccc(OCCN5CCOCC5)c4)cc3[nH]2)c1)N1CCCC1 [Compound 301] | – | 910 | 1050 |
| O=C(Nc1ccc(Cl)c(-c2nc3ncc(-c4ccc(OCCCN5CCOCC5)cc4)cc3[nH]2)c1)N1CCCC1 [Compound 302] | – | 5900 | 9900 |
| COCCOc1ccc(-c2cnc3nc(-c4cc(NC(=O)N5CCCC5)ccc4Cl)[nH]c3c2)cc1 [Compound 303] | – | 146 | 400 |
| CC(C)(CN)c1ccc(-c2cnc3nc(-c4cc(NC(=O)N5CCCC5)ccc4Cl)[nH]c3c2)cc1 [Compound 304] | – | 9600 | 4700 |
| C[Si](C)(C)CCOCn1cnc(-c2cnc3nc(-c4cc(NC(=O)N5CCCC5)ccc4Cl)[nH]c3c2)c1 [Compound 306] | – | 207 | 181 |
| O=C(Nc1ccc(Cl)c(-c2nc3ncc(-c4c[nH]cn4)cc3[nH]2)c1)N1CCCC1 [Compound 307] | – | > 25000 | > 50000 |
| O=C(Nc1ccc(F)c(-c2nc3ncc(-c4ccc(OCC5CO5)cc4)cc3[nH]2)c1)N1CCCC1 (stereo not shown) [Compound 310] | – | 1950 | 4600 |
| CN1CCN(CCOc2ccc(-c3cnc4nc(-c5cc(NC(=O)N6CCCC6)ccc5F)[nH]c4c3)cc2)CC1 [Compound 311] | – | > 25000 | > 6900 |
| COCCOc1ccc(-c2cnc3nc(-c4cc(NC(=O)N5CCCC5)ccc4F)[nH]c3c2)cc1 [Compound 312] | – | 1750 | 3700 |
| CC(C)OC(=O)Nc1ccc(Cl)c(-c2nc3ncc(-c4ccccc4N)cc3[nH]2)c1 [Compound 334] | – | 260 | 990 |
| CC(C)OC(=O)Nc1ccc(Cl)c(-c2nc3ncc(-c4ccccc4NC(=O)OC(C)C)cc3[nH]2)c1 [Compound 335] | – | 600 | 1090 |
| CC(C)OC(=O)Nc1ccc(Cl)c(-c2nc3ncc(-c4ccccc4NC(=O)OC(C)C)cc3n2C(=O)OC(C)C)c1 [Compound 336] | – | 1890 | 2180 |
| CC(C)OC(=O)Nc1ccc(-c2cnc3nc(-c4cc(NC(=O)OC(C)C)ccc4Cl)[nH]c3c2)cc1 [Compound 337] | – | 119 | 295 |
| CC(C)OC(=O)Nc1ccc(Cl)c(-c2nc3ncc(-c4ccc(NC(=O)CN)cc4)cc3[nH]2)c1 [Compound 338] | – | 2400 | 420 |

| SMILES | EC50 [1, 3] [nM] | EC50 [1, 4] [nM] | EC50 [2] [nM] |
| --- | --- | --- | --- |
| CC(C)OC(=O)Nc1ccc(Cl)c(-c2nc3ncc(-c4ccc(NC(=O)CCN)cc4)cc3[nH]2)c1 [Compound 339] | – | 3700 | 1820 |
| CC(C)OC(=O)Nc1ccc(Cl)c(-c2nc3ncc(-c4ccccc4NC(=O)CN)cc3[nH]2)c1 [Compound 340] | – | 11700 | 9800 |
| COC(=O)Nc1ccc(-c2cnc3nc(-c4cc(NC(=O)OC(C)C)ccc4Cl)[nH]c3c2)cc1 [Compound 341, methyl N-{4-[2-(2-chloro-5-{[(propan-2-yloxy)carbonyl]amino}phenyl)-1H-imidazo[4,5-b]pyridin-6-yl]phenyl}carbamate] | ~80 | 80 | 230 |
| CC(C)OC(=O)Nc1ccc(Cl)c(-c2nc3ncc(-c4ccccc4NC(=O)CCN)cc3[nH]2)c1 [Compound 342] | – | > 25000 | 39100 |
| COC(=O)Nc1ccc(-c2cnc3nc(-c4cc(NC(=O)N5CCC5)ccc4Cl)[nH]c3c2)cc1 [Compound 344] | – | 7600 | 17000 |
| CNc1ccc(-c2cnc3nc(-c4cc(NC(=O)c5ccc(CN(C)C)o5)ccc4Cl)[nH]c3c2)cc1 [Compound 347] | – | > 25000 | 7200 |
| CN(C)C(=O)Nc1ccc(F)c(-c2nc3ncc(Cl)cc3[nH]2)c1 [Compound 354] | – | > 25000 | > 50000 |
| CCN(CC)C(=O)Nc1ccc(F)c(-c2nc3ncc(Cl)cc3[nH]2)c1 [Compound 355] | – | > 25000 | > 50000 |
| O=C(Nc1ccc(C(F)(F)F)cc1)Nc1ccc(F)c(-c2nc3ncc(Cl)cc3[nH]2)c1 [Compound 356] | – | > 25000 | 19600 |
| CC(C)(C)C(=O)Nc1ccc(F)c(-c2nc3ncc(Cl)cc3[nH]2)c1 [Compound 358] | – | > 25000 | > 50000 |
| O=C(CCN1CCCCC1)Nc1ccc(F)c(-c2nc3ncc(Cl)cc3[nH]2)c1 [Compound 359] | – | > 25000 | > 35300 |
| CC(C)N(C(=O)Nc1ccc(F)c(-c2nc3ncc(Br)cc3[nH]2)c1)C(C)C [Compound 362] | – | > 25000 | 7500 |
| O=C(Nc1ccc(F)c(-c2nc3ncc(Br)cc3[nH]2)c1)N1CCOCC1 [Compound 365] | – | 19800 | > 50000 |
| O=C(Nc1ccc(F)c(-c2nc3ncc(Br)cc3[nH]2)c1)c1cc[nH]n1 [Compound 368] | – | 18900 | > 50000 |
| O=C(Nc1ccc(Cl)c(-c2nc3ncc(Br)cc3[nH]2)c1)c1cocn1 [Compound 369] | – | > 25000 | > 50000 |
| O=C(Nc1ccc(Cl)c(-c2nc3ncc(Br)cc3[nH]2)c1)c1ccc(F)o1 [Compound 373] | – | 550 | 2150 |
| CN(C)CCn1c(-c2cc(NC(=O)N3CCCC3)ccc2Cl)nc2ncc(Br)cc21 [Compound 387] | – | > 25000 | > 50000 |
| O=C(Nc1ccc(Cl)c(-c2nc3ncc(Br)cc3n2CCN2CCOCC2)c1)N1CCCC1 [Compound 388] | – | > 25000 | > 50000 |
| CN(C)c1ccc(-c2cnc3nc(-c4cc(NC(=O)Nc5ccc(C(F)(F)F)cc5)ccc4F)oc3c2)cc1 [Compound 390] | – | 12600 | 18200 |
| O=C(Nc1ccc(C(F)(F)F)cc1)Nc1ccc(F)c(-c2nc3ncc(-c4ccc(NCCN5CCOCC5)nc4)cc3o2)c1 [Compound 391] | – | > 25000 | > 12300 |
| O=C(Nc1ccc(C(F)(F)F)cc1)Nc1ccc(F)c(-c2nc3ncc(-c4ccc(N5CCOCC5)cc4)cc3o2)c1 [Compound 392] | – | > 25000 | 8400 |
